Assay results from article PMC7248712 (2020).

Assays:
[1] = tested on: poly A (RNA, polymer) A; assay: fluorimetric titration, Scatchard (McGhee-von Hippel) fit; settings: Na+ (sodium cacodylate, I = 0.05 M), pH 7.0, 1 µM compound, n fixed 0.5 per polynucleotide base
[2] = tested on: poly U (RNA, polymer) U; assay: as above; settings: Na+ (sodium cacodylate, I = 0.05 M), pH 7.0, 1 µM compound, n fixed 0.5 per polynucleotide base
[3] = tested on: poly C (RNA, polymer) C; assay: fluorimetric titration; settings: Na+ (sodium cacodylate, I = 0.05 M), pH 7.0, 1 µM compound
[4] = tested on: poly (dAdT)2 (DNA, polymer) AT; assay: fluorimetric titration, Scatchard (McGhee-von Hippel) fit; settings: Na+ (sodium cacodylate, I = 0.05 M), pH 7.0, room temperature, 1 µM compound, n fixed 0.2 per polynucleotide base
[5] = tested on: poly U (RNA, polymer) U; assay: fluorimetric titration; settings: Na+ (sodium cacodylate, I = 0.05 M); pH 7.0, 1 µM compound; up to 100-fold excess of polynucleotide bases
[6] = tested on: poly A (RNA, polymer) A; assay: fluorimetric titration; settings: Na+ (sodium cacodylate, I = 0.05 M); pH 7.0, 1 µM compound; up to 100-fold excess of polynucleotide bases
[7] = tested on: poly A-poly U (RNA, polymer) A/U; assay: fluorimetric titration; settings: Na+ (sodium cacodylate, I = 0.05 M); pH 7.0, 1 µM compound; up to 100-fold excess of polynucleotide bases
[8] = tested on: poly G (RNA, polymer) G; assay: fluorimetric titration; settings: Na+ (sodium cacodylate, I = 0.05 M); pH 7.0, 1 µM compound; up to 100-fold excess of polynucleotide bases
[9] = tested on: poly (dAdT)2 (DNA, polymer) AT; assay: fluorimetric titration; settings: Na+ (sodium cacodylate, I = 0.05 M); pH 7.0, 1 µM compound; up to 100-fold excess of polynucleotide bases
[10] = tested on: poly A-poly U (RNA, polymer) A/U; assay: fluorimetric titration, Scatchard (McGhee-von Hippel) fit; settings: Na+ (sodium cacodylate, I = 0.05 M), pH 7.0, room temperature, 1 µM compound, n fixed 0.2 per polynucleotide base

SMILES | log Ks [1] | log Ks [2] | binding ([3]; emission change too small to fit, authors state binding not supported) | log Ks [4] | binding [5] | binding [6] | binding [7] | binding [8] | binding ([3]; up to 100-fold excess of polynucleotide bases) | binding [9] | log Ks [10]
COC(=O)[C@H](CCCCNC(=O)CCCc1ccc2ccc3cccc4ccc1c2c34)n1cc(Cn2cc3c4c(ncnc42)Nc2ncccc2-3)nn1 | 5.2 | 4.7 | no | 5.7 | – | – | – | – | – | – | –
NCCCC[C@@H](C(=O)O)n1cc(Cn2cc3c4c(ncnc42)Nc2ncccc2-3)nn1 | – | – | – | – | no | no | no | no | no | no | –
COC(=O)[C@H](CCCCNC(=O)c1ccc2ccc3cccc4ccc1c2c34)n1cc(Cn2cc3c4c(ncnc42)Nc2ncccc2-3)nn1 | – | – | – | 5.0 | – | – | – | – | – | – | 5.5
